# Assay results published in PubChem BioAssay AID652032 (The Scripps Research Institute Molecular Screening Center, 2013).
# Target: Kappa-type opioid receptor (Homo sapiens) (UniProt P41145)
# Test: OPRK1 antagonists, late-stage follow-up, cell-based, fluorescence, dose response (AID 652032)
# Settings: OPRK1-expressing cells, fluorescence antagonist read-out
# Chain of Kappa-type opioid receptor (Homo sapiens) (P41145 whole entry, looked up): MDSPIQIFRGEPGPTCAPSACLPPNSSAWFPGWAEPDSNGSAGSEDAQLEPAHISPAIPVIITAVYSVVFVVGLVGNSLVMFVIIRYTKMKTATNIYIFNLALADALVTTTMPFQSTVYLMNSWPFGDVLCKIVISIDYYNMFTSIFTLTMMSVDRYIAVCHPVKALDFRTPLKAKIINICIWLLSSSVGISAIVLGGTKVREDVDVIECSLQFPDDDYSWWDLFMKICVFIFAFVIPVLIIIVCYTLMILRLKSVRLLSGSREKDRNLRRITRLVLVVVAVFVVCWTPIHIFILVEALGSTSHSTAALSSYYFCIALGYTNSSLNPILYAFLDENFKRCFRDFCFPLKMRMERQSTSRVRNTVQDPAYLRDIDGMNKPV
row,SMILES,IC50 [nM]
1,CCOC(=O)c1cc(C(=O)OC)c(C)nc1N1CCC(NC2CCCCC2)CC1,2600
2,COC(=O)c1cc(Br)cnc1N1CCC(CNC2CCCCC2)CC1,3500
3,COC(=O)c1cc(Br)cnc1N1CCC(NCCO)CC1,9200
4,COC(=O)c1cccnc1N1CCC(NC2CCCCC2)C(O)C1 (configuration not stated),2200
5,COC(=O)c1cc(F)cnc1N1CCC(NC2CCCCC2)CC1,6600
6,COC(=O)c1cc(Br)cnc1N1CCC(N[C@H](C)C2CCCCC2)CC1,6800
7,COC(=O)c1cc(Br)cnc1N1CCC(N(C)C2CCCCC2)CC1,2700
8,O=C(O)c1cc(Br)cnc1N1CCC(NC2CCCCC2)CC1,5200
9,COC(=O)c1cc(Br)cnc1N1CCC(N)C(O)C1 (configuration not stated),5900

# Compounds with a lower IC50, results first:
row,IC50 [nM],SMILES
1,652,COC(=O)c1cc(Br)cnc1N1CCC(NC2CCCC(O)C2)CC1 (configuration not stated)
2,628,COC(=O)c1cc(NC(C)=O)cnc1N1CCC(NC2CCCCC2)CC1
3,621,COC(=O)c1cc(Br)cnc1N1CCC(NC2CCOCC2)CC1
4,536,COC(=O)c1cc(Br)cnc1N1CCC(NC2CCC(C)CC2)CC1 (configuration not stated)
5,398,CC(C)OC(=O)c1cc(Br)cnc1N1CCC(NC2CCCCC2)CC1
6,267,COC(=O)c1cc(Br)cnc1N1CCC(NC2CCCCC2OC)CC1 (configuration not stated)
7,231,COC(=O)c1cc(Br)cnc1N1CCC(N[C@@H]2CCCC[C@H]2O)CC1
8,185,COC(=O)c1cc(Br)cnc1N1CCC(NC2CCCCC2)C1 (configuration not stated)
9,159,COC(=O)c1cc(Cl)cnc1N1CCC(NC2CCCCC2)CC1
10,133,COC(=O)c1cc(Br)cnc1N1CCC(NC2CCCCC2)CC1
11,120,COC(=O)c1cc(Br)cnc1N1CCC(NC2CCCC2)CC1
12,110,COC(=O)c1cc(Br)cnc1N1CCC(NC2CCCCCC2)CC1
13,79,COC(=O)c1cc(I)cnc1N1CCC(NC2CCCCC2)CC1
